Earlier results as cited in patent US20100285081A1, “Bactericidal Nanofibers, and Methods of Use Thereof” (MASSACHUSETTS INSTITUTE OF TECHNOLOGY, priority 2007, published 2010).

Key:
[1] = system: S. epidermidis; settings: from Buxbaum et al. 2006
[2] = system: E. coli; settings: from Buxbaum et al. 2006

For `[H]/N=C(\N/C(=N/[H])NCCCCCCNC(=N)NC(=N)Nc1ccc(Cl)cc1)Nc1ccc(Cl)cc1` [CHX, chlorhexidine], the “minimum inhibitory concentration of CHX” value [1] is given as 0.5 to 2 µg/mL and the “minimum inhibitory concentration of CHX” value [2] is given as 2 to 8 µg/mL.
